# Measured values as given in patent publication US6337089B1, “Microcapsule containing core material and method for producing the same” (Seiwa Kasei Company, Limited, priority 1998, dated 2002).
# Assay: Analysis Method 8: ultraviolet ray transmittance on surgical tape
# Details: wave-length of 310 nm; applied amounts differ per sample
# Procedure: A measuring sample was applied on a surgical tape (TRANSPORE TAPE, manufactured by 3M Corp.), this was irradiated with a ultraviolet ray, and the amount of the transmitted light was measured by a SPF analyzer, (UV-1000S, manufactured by LABSPHERE Corp., US). The numerical value in the examples is an average of 40 values. The amount of the sample applied on a surgical tape is 2 μl/cm^2 and a certain amount when measuring SPF value and ultraviolet ray transmittance, respectively.
smiles,measurement,value
"CCCCC(CC)COC(=O)C=Cc1ccc(OC)cc1 (stereo not shown) [2-ethylhexyl p-methoxy-cinnamate, 2-ethylhexyl p-methoxycinnamate]",Ultraviolet ray transmittance,2.2
